Laboratory results from ChEMBL document CHEMBL5252615, “Synthesis, biological activity and mechanism of action of novel allosecurinine derivatives as potential antitumor agents” (Bioorg Med Chem, 2023).
Active and inactive are the calls of the source. The calls are words filed in the database; no cut-off is given here.

Experiments:
THP-1 [1] = assay: Antitumor activity against human THP-1 cells assessed as reduction in cell viability incubated for 72 hrs; type: functional, cell-based; conditions: THP-1, 72 h
K562 [2] = assay: Induction of apoptosis in human K562 cells assessed as necrotic cells at 2.5 uM after 48 hrs by Annexin-V-FITC/PI staining based flow cytometric analysis (reference value: 1.19%); type: functional
U-937 [3] = assay: Induction of reactive oxygen species production in human U-937 cells at 1 to 5 uM measured after 48 hrs by DCF fluorescence analysis; type: functional, cell-based; conditions: dose 1-5 µM
HL-60 [4] = assay: Induction of differentiation of human HL-60 cells assessed as increase in CD11b expression at 0.5 uM measured after 72 hrs by flow cytometric analysis; type: functional, cell-based
U-937 [5] = assay: Induction of apoptosis in human U-937 cells assessed as accumulation of cells at G1 phase at 1 to 2.5 uM after 48 hrs by PI staining based flow cytometric analysis; type: functional, cell-based; conditions: dose 1-2.5 µM
K562 [6] = assay: Antitumor activity against human K562 cells assessed as reduction in cell viability incubated for 72 hrs; type: functional, cell-based; conditions: K562, 72 h
SK-OV-3 [7] = assay: Antitumor activity against human SK-OV-3 cells assessed as reduction in cell viability incubated for 72 hrs; type: functional, cell-based; conditions: SK-OV-3, 72 h
THP-1 [8] = assay: Induction of apoptosis in human THP-1 cells assessed as early apoptotic cells at 2.5 uM after 48 hrs by Annexin-V-FITC/PI staining based flow cytometric analysis (reference value: 4.61%); type: functional
NB-4 [9] = assay: Induction of apoptosis in human NB4 cells assessed as decrease in expression level of Bcl-2 measured after 48 hrs by Western blotting analysis; type: functional, cell-based; conditions: dose 1-5 µM
U-937 [10] = assay: Induction of differentiation of human U-937 cells assessed as increase in CD11b expression at 0.5 uM measured after 72 hrs by flow cytometric analysis; type: functional, cell-based
HL-60 [11] = assay: Antitumor activity against human HL-60 cells assessed as reduction in cell viability incubated for 72 hrs; type: functional, cell-based; conditions: HL-60, 72 h
NB-4 [12] = assay: Induction of apoptosis in human NB4 cells assessed as early apoptotic cells at 2.5 uM after 48 hrs by Annexin-V-FITC/PI staining based flow cytometric analysis (reference value: 0.86%); type: functional
NB-4 [13] = assay: Induction of differentiation of human NB4 cells assessed as increase in CD11b expression at 0.5 uM measured after 72 hrs by flow cytometric analysis; type: functional, cell-based
U-937 [14] = assay: Antitumor activity against human U-937 cells assessed as reduction in cell viability incubated for 72 hrs; type: functional, cell-based; conditions: U-937, 72 h
NB-4 [15] = assay: Antitumor activity against human NB4 cells assessed as reduction in cell viability incubated for 72 hrs; type: functional, cell-based; conditions: NB-4, 72 h
K562 [16] = assay: Induction of apoptosis in human K562 cells assessed as early apoptotic cells at 2.5 uM after 48 hrs by Annexin-V-FITC/PI staining based flow cytometric analysis (reference value: 1.26%); type: functional
SK-OV-3 [17] = assay: Antitumor activity against taxol-resistant human SK-OV-3 cells assessed as reduction in cell viability incubated for 72 hrs; type: functional, cell-based; conditions: SK-OV-3, 72 h
THP-1 [18] = assay: Induction of differentiation of human THP1 cells assessed as increase in CD11b expression at 0.5 uM measured after 72 hrs by flow cytometric analysis; type: functional, cell-based
NB-4 [19] = assay: Induction of apoptosis in human NB4 cells assessed as decrease in expression level of XIAP measured at 1 to 5 uM after 48 hrs by Western blotting analysis; type: functional, cell-based; conditions: dose 1-5 µM
THP-1 [20] = assay: Induction of apoptosis in human THP-1 cells assessed as necrotic cells at 2.5 uM after 48 hrs by Annexin-V-FITC/PI staining based flow cytometric analysis (reference value: 0.19%); type: functional
K562 [21] = assay: Induction of apoptosis in human K562 cells assessed as decrease in expression level of YAP1 measured at 1 to 5 uM after 48 hrs by Western blotting analysis; type: functional, cell-based; conditions: dose 1-5 µM
K562 [22] = assay: Induction of apoptosis in human K562 cells assessed as late apoptotic cells at 2.5 uM after 48 hrs by Annexin-V-FITC/PI staining based flow cytometric analysis (reference value: 0.21%); type: functional
THP-1 [23] = assay: Induction of apoptosis in human THP-1 cells assessed as decrease in expression level of PARP measured at 1 to 5 uM after 48 hrs by Western blotting analysis; type: functional, cell-based; conditions: dose 1-5 µM
U-937 [24] = assay: Induction of apoptosis in human U-937 cells assessed as accumulation of cells at sub-G1 phase at 2.5 uM after 48 hrs by PI staining based flow cytometric analysis; type: functional, cell-based
THP-1 [25] = assay: Induction of apoptosis in human THP-1 cells assessed as viable cells at 2.5 uM after 48 hrs by Annexin-V-FITC/PI staining based flow cytometric analysis (reference value: 93.94%); type: functional; conditions: read-out: Activity
NB-4 [26] = assay: Induction of apoptosis in human NB4 cells assessed as accumulation of cells at sub-G1 phase at 2.5 uM after 48 hrs by PI staining based flow cytometric analysis; type: functional, cell-based
HL-60 [27] = assay: Induction of apoptosis in human HL-60 cells assessed as viable cells at 2.5 uM after 48 hrs by Annexin-V-FITC/PI staining based flow cytometric analysis (reference value: 96.05%); type: functional; conditions: read-out: Activity
KG-1 [28] = assay: Induction of apoptosis in human KG-1 cells assessed as decrease in expression level of caspase 3/9 measured at 1 to 5 uM after 48 hrs by Western blotting analysis; type: functional, cell-based; conditions: dose 1-5 µM
K562 [29] = assay: Induction of apoptosis in human K562 cells assessed as decrease in expression level of caspase 3/9 measured at 1 to 5 uM after 48 hrs by Western blotting analysis; type: functional, cell-based; conditions: dose 1-5 µM
KG-1 [30] = assay: Induction of apoptosis in human KG-1 cells assessed as accumulation of cells at sub-G1 phase at 2.5 uM after 48 hrs by PI staining based flow cytometric analysis; type: functional, cell-based
THP-1 [31] = assay: Induction of apoptosis in human THP-1 cells assessed as increase in expression level of p21 measured at 1 to 5 uM after 48 hrs by Western blotting analysis; type: functional, cell-based; conditions: dose 1-5 µM
THP-1 [32] = assay: Induction of apoptosis in human THP-1 cells assessed as change in mitochondrial membrane potential after 48 hrs by JC-1 staining based flow cytometric analysis; type: functional, cell-based
KG-1 [33] = assay: Induction of apoptosis in human KG-1 cells assessed as late apoptotic cells at 2.5 uM after 48 hrs by Annexin-V-FITC/PI staining based flow cytometric analysis (reference value: 0.16%); type: functional
K562 [34] = assay: Induction of apoptosis in human K562 cells assessed as viable cells at 2.5 uM after 48 hrs by Annexin-V-FITC/PI staining based flow cytometric analysis (reference value: 97.34%); type: functional; conditions: read-out: Activity
KG-1 [35] = assay: Induction of apoptosis in human KG-1 cells assessed as early apoptotic cells at 2.5 uM after 48 hrs by Annexin-V-FITC/PI staining based flow cytometric analysis (reference value: 0.70%); type: functional
HL-60 [36] = assay: Induction of apoptosis in human HL-60 cells assessed as early apoptotic cells at 2.5 uM after 48 hrs by Annexin-V-FITC/PI staining based flow cytometric analysis (reference value: 0.68%); type: functional
KG-1 [37] = assay: Induction of apoptosis in human KG-1 cells assessed as necrotic cells at 2.5 uM after 48 hrs by Annexin-V-FITC/PI staining based flow cytometric analysis (reference value: 2.73%); type: functional
U-937 [38] = assay: Induction of reactive oxygen species production in human U-937 cells at 1 to 5 uM measured after 48 hrs by DCFH-DA staining based flow cytometric analysis; type: functional, cell-based; conditions: dose 1-5 µM

O=C1O[C@@]23C[C@@H](C=CC2=C1C(O)c1ccc([N+](=O)[O-])cc1)N1CCCC[C@H]13 (stereo partly drawn)
IC50 (THP-1 [1]): 2840 nM
Activity (K562 [2]): 6.62%
Activity (U-937 [3]): Active
Activity (HL-60 [4]): Active
Activity (U-937 [5]): Active
IC50 (K562 [6]): 1780 nM
IC50 (SK-OV-3 [7]): 4840 nM
Activity (THP-1 [8]): 16.82%
Activity (NB-4 [9]): Dose-Dependent Effect
Activity (U-937 [10]): Active
IC50 (HL-60 [11]): 3950 nM
Activity (NB-4 [12]): 23.15%
Activity (NB-4 [13]): Active
IC50 (U-937 [14]): 1530 nM
IC50 (NB-4 [15]): 1880 nM
Activity (K562 [16]): 3.32%
IC50 (SK-OV-3 [17]): 3680 nM
Activity (THP-1 [18]): Active
Activity (NB-4 [19]): Active
Activity (THP-1 [20]): 1.76%
Activity (K562 [21]): Active
Activity (K562 [22]): 12.56%
Activity (THP-1 [23]): Active
Activity (U-937 [24]): Active
viability at 2.5 µM (THP-1 [25]): 69.7%
Activity (NB-4 [26]): Active
viability at 2.5 µM (HL-60 [27]): 73%
Activity (KG-1 [28]): Active
Activity (K562 [29]): Active
Activity (KG-1 [30]): Active
Activity (THP-1 [31]): Active
Activity (THP-1 [32]): Active
Activity (KG-1 [33]): 46.7%
viability at 2.5 µM (K562 [34]): 77.5%
Activity (KG-1 [35]): 0.33%
Activity (HL-60 [36]): 18.2%
Activity (KG-1 [37]): 7.79%
Activity (U-937 [38]): Active
